pIC50: −log10 of the molar value.
Columns and labels:
[1] = Intrinsic clearance in mouse hepatocytes assessed per million cells; assay type: ADME, cell-based, Hepatocyte; settings: read-out: CLH
Enterobacter cloacae [2] = assay: Potentiation of meropenem-induced antibacterial activity against Enterobacter cloacae expressing TEM-1/KPC-2 assessed as meropenem MIC at 4 ug/ml by broth microdilution method (reference value: 8 ug/ml); assay type: functional; settings: dose 4 µg/ml
Cytochrome P450 1A2 = biological target: T1, Cytochrome P450 1A2 (Homo sapiens, UniProt P05177); assay: Inhibition of CYP1A2 in human liver microsomes in presence of NADPH by LC-MS/MS analysis; assay type: ADME
T1 sequence (P05177 whole entry): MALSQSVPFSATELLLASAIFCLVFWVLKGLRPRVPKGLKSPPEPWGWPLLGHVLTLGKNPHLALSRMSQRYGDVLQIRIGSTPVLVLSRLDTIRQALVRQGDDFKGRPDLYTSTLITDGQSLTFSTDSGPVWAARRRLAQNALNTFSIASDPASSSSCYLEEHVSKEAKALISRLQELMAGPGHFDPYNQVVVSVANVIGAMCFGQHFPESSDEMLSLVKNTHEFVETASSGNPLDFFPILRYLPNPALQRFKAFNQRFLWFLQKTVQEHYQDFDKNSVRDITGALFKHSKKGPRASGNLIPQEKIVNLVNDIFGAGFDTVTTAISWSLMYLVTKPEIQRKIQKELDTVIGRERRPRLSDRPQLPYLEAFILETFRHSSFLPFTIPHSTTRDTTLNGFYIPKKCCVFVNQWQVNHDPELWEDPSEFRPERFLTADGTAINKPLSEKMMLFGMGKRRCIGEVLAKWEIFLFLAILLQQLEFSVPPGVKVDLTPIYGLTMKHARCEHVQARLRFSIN

Acinetobacter baumannii [3] = assay: Antibacterial activity against Acinetobacter baumannii expressing OXA-23 by broth microdilution method; assay type: functional
Klebsiella pneumoniae [4] = assay: Potentiation of meropenem-induced antibacterial activity against Klebsiella pneumoniae expressing TEM-1/SHV-11/KPC-3 assessed as meropenem MIC at 4 ug/ml by broth microdilution method (reference value: 128 ug/ml); assay type: functional; settings: dose 4 µg/ml
Acinetobacter baumannii [5] = assay: Inhibition of beta lactamase OXA in carbapenem-resistant Acinetobacter baumannii assessed as meropenem-induced antibacterial activity by measuring meropenem MIC90 at 4 ug/ml by broth microdilution method (Rvb > 32 ug/ml); settings: dose 4.0 µg/ml
Enterobacter [6] = assay: Inhibition of beta lactamase KPC in carbapenem-resistant Enterobacter assessed as meropenem minimum concentration required for antibacterial activity at 4 ug/ml by broth microdilution method (reference value: 4 ug/ml); settings: dose 4.0 µg/ml
[7] = Plasma protein binding in rat assessed as fraction unbound by LC-MS/MS analysis; assay type: ADME, cell-free
[8] = Volume of distribution in rat at 1 mg/kg, iv; assay type: ADME, organism-based; settings: in vivo
Klebsiella pneumoniae [9] = assay: Antibacterial activity against Klebsiella pneumoniae expressing TEM-OSBL/CTX-M-14/OXA-48 by broth microdilution method; assay type: functional
Enterobacter cloacae [10] = assay: Antibacterial activity against Enterobacter cloacae expressing TEM-1/KPC-2 by broth microdilution method; assay type: functional
[11] = Cytotoxicity against human HepG2 cells; assay type: cell-based
Cytochrome P450 2C19 = Cytochrome P450 2C19 (Homo sapiens, UniProt P33261); assay: Inhibition of CYP2C19 in human liver microsomes in presence of NADPH by LC-MS/MS analysis; assay type: ADME
[12] = Intrinsic clearance in human hepatocytes assessed per million cells; assay type: ADME, cell-based, Hepatocyte; settings: read-out: CLH
[13] = Stability in dog plasma assessed as parent compound remaining after 1 hr; assay type: ADME, cell-free, Canis lupus familiaris; settings: read-out: Stabilty
Cytochrome P450 2D6 = Cytochrome P450 2D6 (Homo sapiens, UniProt P10635); assay: Inhibition of CYP2D6 in human liver microsomes in presence of NADPH by LC-MS/MS analysis; assay type: ADME
Acinetobacter baumannii [14] = assay: Inhibition of beta lactamase OXA in carbapenem-resistant Acinetobacter baumannii assessed as meropenem-induced antibacterial activity by measuring meropenem MIC50 at 4 ug/ml by broth microdilution method (Rvb > 32 ug/ml); settings: dose 4.0 µg/ml
Enterobacter [15] = assay: Inhibition of beta lactamase OXA in carbapenem-resistant Enterobacter assessed as meropenem-induced antibacterial activity by measuring meropenem MIC50 at 4 ug/ml by broth microdilution method (reference value: 16 ug/ml); settings: dose 4.0 µg/ml
Enterobacter [16] = assay: Inhibition of beta lactamase KPC in carbapenem-resistant Enterobacter assessed as meropenem-induced antibacterial activity by measuring meropenem MIC50 at 4 ug/ml by broth microdilution method (Rvb >32 ug/ml); settings: dose 4.0 µg/ml
[17] = Inhibition of beta lactamase KPC-2 in Enterobacter cloacae assessed as decrease in enzyme activity using nitrocefin as substrate preincubated for 10 mins followed by substrate addition measured for 10 mins by fluorescence plate reader analysis
[18] = Clearance in rat at 1 mg/kg, iv; assay type: ADME, organism-based; settings: in vivo
[19] = AUC in rat at 1 mg/kg, iv; assay type: ADME, organism-based; design: dose 1 mg/kg; settings: in vivo
Acinetobacter baumannii [20] = assay: Potentiation of meropenem-induced antibacterial activity against Acinetobacter baumannii expressing OXA-23 assessed as meropenem MIC at 4 ug/ml by broth microdilution method (reference value: 32 ug/ml); assay type: functional; settings: dose 4 µg/ml
Enterobacter [21] = assay: Inhibition of beta lactamase OXA in carbapenem-resistant Enterobacter assessed as meropenem maximum concentration required for antibacterial activity at 4 ug/ml by broth microdilution method (Rvb > 32 ug/ml); settings: dose 4.0 µg/ml
[22] = Plasma protein binding in mouse assessed as fraction unbound by LC-MS/MS analysis; assay type: ADME, cell-free
Klebsiella pneumoniae [23] = assay: Potentiation of meropenem-induced antibacterial activity against Klebsiella Pneumoniae ACC-00783 expressing OXA-48 infected in CD-1 mouse assessed as reduction in bacterial burden co administered with 300 mg/kg, iv meropenem; assay type: functional, organism-based; settings: dose mg/kg 25-100
Enterobacter [24] = assay: Inhibition of beta lactamase OXA in carbapenem-resistant Enterobacter assessed as meropenem-induced antibacterial activity by measuring meropenem MIC 90 at 4 ug/ml by broth microdilution method (Rvb >32 ug/ml); settings: dose 4.0 µg/ml
[25] = Intrinsic clearance in rat hepatocytes assessed per million cells; assay type: ADME, cell-based, Hepatocyte; settings: read-out: CLH
[26] = Inhibition of beta lactamase TEM-1 in Enterobacter cloacae assessed as decrease in enzyme activity using nitrocefin as substrate preincubated for 10 mins followed by substrate addition measured for 10 mins by fluorescence plate reader analysis
Klebsiella pneumoniae [27] = assay: Antibacterial activity against Klebsiella pneumoniae expressing SHV-11/OXA-181 by broth microdilution method; assay type: functional
[28] = Inhibition of beta lactamase AmpC in Enterobacter cloacae assessed as decrease in enzyme activity using nitrocefin as substrate preincubated for 10 mins followed by substrate addition measured for 10 mins by fluorescence plate reader analysis
[29] = Intrinsic clearance in dog hepatocytes assessed per million cells; assay type: ADME, cell-based, Canis lupus familiaris, Hepatocyte; settings: read-out: CLH
Acinetobacter baumannii [30] = assay: Inhibition of beta lactamase OXA in carbapenem-resistant Acinetobacter baumannii assessed as meropenem minimum concentration required for antibacterial activity at 4 ug/ml by broth microdilution method (reference value: 8 ug/ml); settings: dose 4.0 µg/ml
Enterobacter [31] = assay: Inhibition of beta lactamase OXA in carbapenem-resistant Enterobacter assessed as meropenem minimum concentration required for antibacterial activity at 4 ug/ml by broth microdilution method (reference value: 2 ug/ml); settings: dose 4.0 µg/ml
[32] = Toxicity in iv dosed rat administered as single dose; assay type: organism-based; settings: in vivo

Sequence of Cytochrome P450 2C19 (P33261 whole entry): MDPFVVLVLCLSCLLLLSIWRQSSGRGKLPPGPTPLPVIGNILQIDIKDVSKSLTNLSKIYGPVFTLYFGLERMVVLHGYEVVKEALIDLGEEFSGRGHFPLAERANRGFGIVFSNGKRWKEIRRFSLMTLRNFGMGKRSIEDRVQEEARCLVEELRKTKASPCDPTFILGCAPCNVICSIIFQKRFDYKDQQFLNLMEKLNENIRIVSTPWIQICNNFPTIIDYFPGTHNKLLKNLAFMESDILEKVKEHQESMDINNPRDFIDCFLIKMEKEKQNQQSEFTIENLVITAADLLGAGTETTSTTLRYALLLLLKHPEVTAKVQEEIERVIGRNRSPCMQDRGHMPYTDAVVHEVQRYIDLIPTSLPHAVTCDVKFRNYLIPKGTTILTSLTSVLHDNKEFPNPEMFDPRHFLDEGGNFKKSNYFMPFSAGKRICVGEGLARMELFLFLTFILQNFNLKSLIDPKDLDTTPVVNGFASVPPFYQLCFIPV
Sequence of Cytochrome P450 2D6 (P10635 whole entry): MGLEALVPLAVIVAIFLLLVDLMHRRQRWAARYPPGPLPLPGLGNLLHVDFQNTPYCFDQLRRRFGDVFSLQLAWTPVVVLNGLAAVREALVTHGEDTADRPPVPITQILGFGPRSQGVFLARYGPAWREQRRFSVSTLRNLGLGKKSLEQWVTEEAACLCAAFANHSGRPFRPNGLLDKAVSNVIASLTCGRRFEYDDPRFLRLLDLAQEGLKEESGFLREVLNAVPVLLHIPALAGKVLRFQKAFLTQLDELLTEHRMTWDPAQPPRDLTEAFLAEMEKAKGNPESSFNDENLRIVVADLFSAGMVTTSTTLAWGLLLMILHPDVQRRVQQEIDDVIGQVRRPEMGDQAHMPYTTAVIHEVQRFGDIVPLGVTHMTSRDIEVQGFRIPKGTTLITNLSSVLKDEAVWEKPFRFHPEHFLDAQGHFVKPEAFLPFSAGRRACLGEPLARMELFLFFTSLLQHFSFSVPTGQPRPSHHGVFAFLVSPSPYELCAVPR

O=C1N2C[C@@H](CC[C@H]2F)N1OS(=O)(=O)[O-].[Na+]
hepatocyte CLint [1]: < 3.5 µL/min/1e6 cells
MIC (Enterobacter cloacae [2]): 0.03 µg/mL
pIC50 (Cytochrome P450 1A2): < 4.30
MIC (Acinetobacter baumannii [3]): > 128 µg/mL
MIC (Klebsiella pneumoniae [4]): 1 µg/mL
MIC90 (Acinetobacter baumannii [5]): 8 µg/mL
MIC (Enterobacter [6]): < 0.03 µg/mL
fraction unbound [7]: > 0.93
Vd [8]: 2.2 L/kg
MIC (Klebsiella pneumoniae [9]): 64 µg/mL
MIC (Enterobacter cloacae [10]): 128 µg/mL
CC50 [11]: > 100000 nM
pIC50 (Cytochrome P450 2C19): < 4.30
hepatocyte CLint [12]: < 3.4 µL/min/1e6 cells
remaining at 1 h [13]: 85%
pIC50 (Cytochrome P450 2D6): < 4.30
MIC50 (Acinetobacter baumannii [14]): 4 µg/mL
MIC50 (Enterobacter [15]): 0.12 µg/mL
MIC50 (Enterobacter [16]): 0.06 µg/mL
pIC50 [17]: 7.72
clearance [18]: 40 mL/min/kg
AUC [19]: 412 ng·h/mL
MIC (Acinetobacter baumannii [20]): 2 µg/mL
Activity (Enterobacter [21]): 2 µg/mL
fraction unbound [22]: > 0.93
Activity (Klebsiella pneumoniae [23]): Dose-dependent effect
MIC90 (Enterobacter [24]): 1 µg/mL
hepatocyte CLint [25]: < 3.4 µL/min/1e6 cells
pIC50 [26]: 9.00
MIC (Klebsiella pneumoniae [27]): 128 µg/mL
pIC50 [28]: 8.00
hepatocyte CLint [29]: < 3 µL/min/1e6 cells
MIC (Acinetobacter baumannii [30]): 0.25 µg/mL
MIC (Enterobacter [31]): < 0.03 µg/mL
MTD [32]: ≥ 1000 mg/kg
